The values below come from patent US6190849A, “Photographic element containing ballasted tetrazole derivative and inhibitor releasing coupler” (priority 1999, dated 2001).

A short description of experiment [1]: Interimage in bilayer format: IDIR-6 in blue layer, IEM in green layer. Particulars: for Cg /Cb+g (interimage): IEM or CIEM in green layer at 7.2×10^-3 mmol/m^2; for Relative Speed (green layer): IEM or CIEM in green layer, normalized to check. How it is done:
(§1) Bilayer photographic elements were prepared by coating the following layers on a cellulose triacetate film support (coverages are in g/m^2). Unless otherwise noted, all comparative and inventive compounds were dispersed in twice their own weight of N,N-dibutyllauramide: […] Layer 3 (Interlayer): gelatin at 0.64, ILS-1 at 0.11 and FD-1 at 0.11. […] Layer 5 (Overcoat): gelatin at 2.79 and 0.02 bis-vinylsulfonemethylether. […] Contrast of the elements was determined using the maximum slope between any two density points. In this test, the ratio of the contrast of the green only exposure to the contrast of the green of a blue and green exposure (Cg /Cb+g) is a measure of the interimage. A higher ratio means more inhibition originating from the blue and affecting the green record. Relative speed of the green layer was determined by measuring the speed point +0.15 density units above Dmin and normalizing to the check position.

Experiment [2] in a line: Interimage in bilayer format: IDIR-2 in blue layer, IEM in green layer. Particulars: for Cg /Cb+g (interimage): IEM or CIEM in green layer at 7.2×10^-3 mmol/m^2, higher ratio = more interimage, no-IEM check; for Relative Speed (green layer): IEM or CIEM in green layer, speed point +0.15 density above Dmin, normalized to check. How it is done:
as §1

Experiment [3] can be described thus: Interimage in multilayer format (density change of receiver record). Particulars: for R→G density difference (interimage) / B→G density difference (interimage): CDIR-1 in red. The source says: Multilayer Film Example ML-1:
Layer 1 (Antihalation layer): black collodial silver sol at 0.135; ILS-1 at 0.162,
Layer 2 (Slow cyan layer): a blend of two red sensitized (both with a mixture of RSD-1 and RSD-2) tabular silver iodobromide emulsions: (i) 0.66×0.12, 4.1 mole % I at 0.302 (ii) 0.55×0.08, 1.5 mole % I at 0.464; cyan dye-forming coupler C-1 at 0.535; DIR coupler CDIR-1 at 0.027; bleach accelerator releasing coupler B-1 at 0.057; masking coupler MC-1 at 0.032; and gelatin at 1.68.
Layer 3 (Mid cyan layer): a blend of two red sensitized (same as above) tabular silver iodobromide emulsions: (i) […], 4.1 mole % I at 0.194 (ii) 1.07×0.11, 4.1 mole % I at 0.238; cyan coupler C-1 at 0.171; CDIR-1 at 0.019; MC-1 at 0.032; B-1 at 0.008; and gelatin at 1.08.
Layer 4 (Fast cyan layer): a red sensitized (same as above) tabular silver iodobromide emulsion (1.33×0.12, 4.1 mole % I) at 0.594; C-1 at 0.184; CDIR-1 at 0.027; MC-1 at 0.022; and gelatin at 0.918.
Layer 5 (Interlayer): ILS-1 at 0.086 and gelatin at 0.540.
Layer 6 (Slow magenta layer): a blend of two green sensitized (both with a mixture of GSD-1 and GSD-2) silver iodobromide emulsions: (i) 0.81×0.12, 2.6 mole % iodide at 0.346 and (ii) 0.55×0.08, 1.5 mole % iodide at 0.130; magenta dye forming coupler M-1 at 0.270; MC-2 at 0.086; IDIR-5 at 0.011; and gelatin at 1.08.
Layer 7 (Mid magenta layer): a blend of two green sensitized (same as above) tabular silver iodobromide emulsions (i) 1.22×0.11, 4.1 mole % I at 0.248 and (ii) 1.07×0.11, 4.1 mole % I at 0.248; M-1 at 0.124; MC-2 at 0.119; IDIR-5 at 0.043; OxDS-2 at 0.016; and gelatin at 1.22.
Layer 8 (Fast magenta layer): a green sensitized tabular silver iodobromide (1.33×0.12, 4.1 mole % I) emulsion at 0.486; M-1 at 0.076; MC-2 at 0.054; B-1 at 0.003; IDIR-5 at 0.015; OxDS-2 at 0.009; and gelatin at 1.02.
Layer 9 (Yellow filter layer): yellow filter dye FD-1 at 0.054; ILS-1 at 0.086; and gelatin at 0.648.
Layer 10 (Slow yellow layer): a blend of three blue sensitized (all with a mixture of BSD-1 and BSD-2) tabular silver iodobromide emulsions (i) 0.55×0.08, 1.5 mole % I at 0.270 (ii) […], 1.5 mole % I at 0.248 and (iii) 1.25×0.14, 4.1 mole % I at 0.400; yellow dye forming coupler Y-2 at 1.08; IDIR-6 at 0.076; CDIR-1 at 0.032; B-1 at 0.022; and gelatin at 1.879.
Layer 11 (Fast yellow layer): a blend of two blue sensitized (both with a mixture of BSD-1 and BSD-2) tabular silver iodobromide emulsions (i) 1.25×0.14, 4.1 mole % I at 0.108 (ii) 2.67×0.13, 4.1 mole % I at 0.378; Y-2 at 0.238; IDIR-6 at 0.076; B-1 at 0.005; and gelatin at 0.810.
Layer 12 (Protective overcoat and UV filter layer): silver bromide Lippman emulsion at 0.216; UV-1 at a total of 0.108; gelatin at 1.242 and bis(vinylsulfonyl)methane hardener at 1.75% of total gelatin weight.
Surfactants, coating aids, emulsion addenda, sequestrants, thickeners, lubricants, matte and tinting dyes were added to the appropriate layers as is common in the art. […]
These multilayer coatings were given a stepped exposure in one color record but only flashed (non-imagewise exposure) in the other two records and processed as described for the bilayer experiments. To monitor interimage, a step nearest to density of 1.5 in the stepped color record (the causer) was chosen, and the difference in density of the other color records (the receivers) at that step and at the no exposure step of the causer was determined. […]

Experiment [4] can be described thus: Interimage in bilayer format: IDIR-1 in green layer, IEM in blue layer. How it is done:
Samples of each element were given a stepped exposure of either green light only or blue and green light combined and processed in the KODAK FLEXICOLOR™ (C4 1) process as described in British Journal of Photography Annual, 1988, pp196-198. Contrast of the elements was determined using the maximum slope between any two density points. […] A higher ratio means more inhibition originating from the blue and affecting the green record. Relative speed of the green layer was determined by measuring the speed point +0.15 density units above Dmin and normalizing to the check position.
Additional bilayer elements were prepared in a manner similar to above by coating the following layers:
Layer 1 (Antihalation Layer): black colloidial elemental silver at 0.34 and gelatin at 2.41.
Layer 2 (Causer Layer): gelatin at 2.79, IDIR-1 at 0.054, coupler M-1 (dispersed as described previously) added at 0.045, and 0.81 green sensitized AgIBr tabular emulsion.
Layer 3 (Interlayer): gelatin at 0.64, ILS-1 at 0.11 and FD-1 at 0.11.
Layer 4 (Receiver Layer): gelatin at 2.79, coupler Y-2 at 1.08, IDIR-6 at 0.076, 0.79 blue sensitized AgIBr tabular emulsion and (when present) IEM-4 (dispersed as above) at 0.0023.
Layer 5 (Overcoat): gelatin at 2.79 and 0.02 bis-vinylsulfonemethylether.

A short description of experiment [5]: Contrast (gamma) reduction by DI(A)R in single layer film element, C-41 process. Particulars: DIR at 0.055 mmol/m^2, relative to non-inhibitor containing check; KODAK FLEXICOLOR (C-41). The source says:
The mild inhibitor fragments that are used in this invention are defined as those that cause less than a 45% gamma reduction, or more preferably less than a 40% gamma reduction, relative to a non-inhibitor containing check when coated as the following single layer film element on a cellulose triacetate film support (coverages are in g/m^2): […]
Overcoat Gelatin at 2.79 and 0.02 bis-vinylsulfonemethylether
Imaging Layer Gelatin at 2.79
Magenta Image Coupler M-1 (dispersed at 80% by
weight in tricresyl phosphate and 20% by weight
N,N-dibutyl-2-butoxy-5-t-octylaniline) at 0.692
DIR being tested at 0.055 mmol/m^2 (dispersed in twice
its weight in N,N-dibutyllauramide)
Green sensitized AgBrI at 1.08
Samples of each element were given a stepped exposure and processed in the KODAK FLEXICOLOR (C-41) process as described in British Journal of Photography Annual, 1988, pp 196-198. Contrast of the elements was determined using the maximum slope between any two density points.

Where [6] appears, read: ML-4: IEM-4 in green, IDIR-2 in blue.

Regarding `CCCCCCCOC(=O)C(CCSC)n1nn[nH]c1=S` (racemic) [IEM-4], the “Cg /Cb+g (interimage)” value in experiment [1] is 1.35; in experiment [2] it was 1.62. The “Relative Speed (green layer)” value in experiment [1] was 0.94; in experiment [2], 0.96. Besides, the “R→G density difference (interimage)” value in experiment [3] (ML-3: IEM-4 in green, IDIR-6 in blue) is on record as -0.206; in experiment [3] (setting [6]), -0.238. In addition, the “B→G density difference (interimage)” value in experiment [3] (ML-3: IEM-4 in green, IDIR-6 in blue, more negative = increased interimage) is listed as -0.129; in experiment [3] (setting [6]) it was -0.212. For the same molecule, the “Cb /Cb+g (interimage)” value in experiment [4] (IEM-4 in blue layer at 0.0023 g/m^2) was determined as 1.57. Moreover, in experiment [4] (IEM-4 in blue layer at 0.0023 g/m^2, normalized to check), the “Relative Speed” value amounted to 0.98.

Consider `CCCCCCCCCCCCCCOc1ccccc1NC(=O)c1cc(Oc2ccc(CSc3nnnn3Cc3ccc(OC)cc3)cc2[N+](=O)[O-])c2ccccc2c1O` [CDIR-1], for which the “interimage, in words” value in experiment [3] (Table IV, IEM in green layer) is “Interimage is not increased”. Besides, the “% Contrast Reduction” value in experiment [5] was -55.4%.

Take `CC(=O)Nc1cccc(-n2nn[nH]c2=S)c1` [CIEM-1]: the “Cg /Cb+g (interimage)” value in experiment [1] is given as 1.16; in experiment [2], 1.19. Moreover, the “Relative Speed (green layer)” value in experiment [1] and in experiment [2] was 1.01 in each case.
